Data reported in ChEMBL document CHEMBL1145526, “Synthesis of 11C-labelled (R)-OHDMI and CFMME and their evaluation as candidate radioligands for imaging central norepinephrine transporters with PET” (Bioorg Med Chem, 2007).

Tests used:
[1] = molecular target: Sodium-dependent noradrenaline transporter (Homo sapiens, UniProt P23975)
Cynomolgus monkey [2] = assay: Ratio of drug level in cerebellum to locus coreuleus in cynomolgus monkey at 1.35 mCi after 93 mins; assay type: ADME, organism-based, Macaca fascicularis; details: in vivo, 1.55 h
Cynomolgus monkey [3] = assay: Ratio of drug level in cerebellum to occipital cortex in cynomolgus monkey at 1.35 mCi after 93 mins; assay type: ADME, organism-based, Macaca fascicularis; details: in vivo, 1.55 h
Cynomolgus monkey [4] = assay: Ratio of drug level in cerebellum to striatum in cynomolgus monkey at 1.35 mCi after 93 mins; assay type: ADME, organism-based, Macaca fascicularis; details: in vivo, 1.55 h
Cynomolgus monkey [5] = assay: Ratio of drug level in cerebellum to thalamus in cynomolgus monkey at 1.35 mCi after 93 mins; assay type: ADME, organism-based, Macaca fascicularis; details: in vivo, 1.55 h
Brain [6] = assay: Drug uptake in cynomolgus monkey brain assessed as radio activity at 1.35 mCi after 24 mins; assay type: ADME, tissue-based, Macaca fascicularis; details: in vivo, 0.4 h
Brain [7] = assay: Drug uptake in cynomolgus monkey brain assessed as radio activity at 1.35 mCi after 42 mins; assay type: ADME, tissue-based, Macaca fascicularis; details: in vivo, 0.7 h
Cynomolgus monkey [8] = assay: Ratio of drug level in cerebellum to mesencephalon in cynomolgus monkey at 1.35 mCi after 93 mins; assay type: ADME, organism-based, Macaca fascicularis; details: in vivo, 1.55 h
Cynomolgus monkey [9] = assay: Ratio of drug level in striatum to mesencephalon in cynomolgus monkey at 1.41 mCi after 93 mins; assay type: ADME, organism-based, Macaca fascicularis; details: in vivo, 1.55 h
Cynomolgus monkey [10] = assay: Ratio of drug level in striatum to thalamus in cynomolgus monkey at 1.41 mCi after 93 mins; assay type: ADME, organism-based, Macaca fascicularis; details: in vivo, 1.55 h
Brain [11] = assay: Drug uptake in cynomolgus monkey brain assessed as radio activity at 1.41 mCi after 80 mins; assay type: ADME, tissue-based, Macaca fascicularis; details: in vivo
Cynomolgus monkey [12] = assay: Ratio of drug level in striatum to lower brainstem in cynomolgus monkey at 1.41 mCi after 93 mins; assay type: ADME, organism-based, Macaca fascicularis; details: in vivo, 1.55 h
Cynomolgus monkey [13] = assay: Ratio of drug level in NET-rich thalamus to NET-poor striatum in cynomolgus monkey; assay type: ADME, organism-based, Macaca fascicularis; details: in vivo
Cynomolgus monkey [14] = assay: Ratio of drug level in striatum to occipital cortex in cynomolgus monkey at 1.41 mCi after 93 mins; assay type: ADME, organism-based, Macaca fascicularis; details: in vivo, 1.55 h
Cynomolgus monkey [15] = assay: Ratio of drug level in striatum to cerebellum in cynomolgus monkey at 1.41 mCi after 93 mins; assay type: ADME, organism-based, Macaca fascicularis; details: in vivo, 1.55 h
Cynomolgus monkey [16] = assay: Ratio of drug level in thalamus to striatum in cynomolgus monkey; assay type: ADME, organism-based, Macaca fascicularis; details: in vivo

Sodium-dependent noradrenaline transporter, sequence (P23975 whole entry): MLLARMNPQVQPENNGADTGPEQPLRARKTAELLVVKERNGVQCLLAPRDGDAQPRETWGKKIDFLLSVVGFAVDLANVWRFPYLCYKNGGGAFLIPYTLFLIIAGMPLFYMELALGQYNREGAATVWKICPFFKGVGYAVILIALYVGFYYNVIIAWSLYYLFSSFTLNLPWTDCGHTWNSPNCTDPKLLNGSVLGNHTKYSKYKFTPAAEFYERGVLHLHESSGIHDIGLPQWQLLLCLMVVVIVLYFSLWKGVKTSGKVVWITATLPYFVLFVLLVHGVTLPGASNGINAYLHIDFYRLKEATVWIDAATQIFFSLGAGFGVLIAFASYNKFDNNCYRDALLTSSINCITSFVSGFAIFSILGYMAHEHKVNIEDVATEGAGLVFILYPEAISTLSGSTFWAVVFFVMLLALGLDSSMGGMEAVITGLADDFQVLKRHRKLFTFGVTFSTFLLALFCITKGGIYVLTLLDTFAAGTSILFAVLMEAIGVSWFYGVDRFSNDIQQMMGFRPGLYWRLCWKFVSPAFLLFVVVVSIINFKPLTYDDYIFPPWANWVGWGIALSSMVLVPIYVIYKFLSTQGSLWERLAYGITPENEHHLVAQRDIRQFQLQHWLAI

A Ki [1] of 8.29 nM was found for `CNC[C@@H](O)CN1c2ccccc2CCc2ccccc21` in this work.

A Ratio (Cynomolgus monkey [2]) of 1.3, a Ratio (Cynomolgus monkey [3]) of 1.3 and a Ratio (Cynomolgus monkey [4]) of 1.2 were found for `[11CH3]Oc1ccc(F)cc1C[C@](O)(C1CCCC1)[C@@H]1CNCCO1` in this work. It also gave a Ratio (Cynomolgus monkey [5]) of 1.35, a Drug uptake (Brain [6]) of 3.5 %ID and a Ratio (Brain [7]) of 3.5 %ID. It also gave a Ratio (Cynomolgus monkey [8]) of 1.2.

A Ki [1] of 7.93 nM was found for `COc1ccccc1O[C@@H](c1ccccc1)[C@@H]1CNCCO1` in this work.

A Ratio (Cynomolgus monkey [9]) of 1.2, a Ratio (Cynomolgus monkey [10]) of 1.35 and a Drug uptake (Brain [11]) of 1.1 %ID were found for `[11CH3]NC[C@@H](O)CN1c2ccccc2CCc2ccccc21` in this work. It also gave a Ratio (Cynomolgus monkey [12]) of 1.2, a Ratio (Cynomolgus monkey [13]) of 1.35 and a Ratio (Cynomolgus monkey [14]) of 1.35. It also gave a Ratio (Cynomolgus monkey [15]) of 1.

A Ratio (Cynomolgus monkey [16]) of 1.5 was found for `[11CH3]NC[C@@H](O)CC12CCC(c3ccccc31)c1ccccc12` in this work.

A Ki [1] of 10.8 nM was found for `COc1ccc(F)cc1C[C@](O)(C1CCCC1)[C@@H]1CNCCO1` in this work.
